# Bridge positions count the residues as written; N and C are the ends. I, II: the chains in the order shown.
# Tested on: EL4-A2402/K^b cells
# Test: Induction of CTLs with peptide dimer: HLA-A24 transgenic mice immunised, splenocytes tested by 51Cr release assay
# Assay type: in vivo, HLA-A24 transgenic mouse
# Conditions: for CTL-inducing activity (induction of peptide-specific CTLs): HLA-A24 transgenic mouse, s.c. injection in the base of the tail, FIG. 1
# Protocol: The CTL-inducing activity of the peptide dimer prepared in Example 1 was evaluated using HLA-A24 transgenic mice (Int. J. Cancer: 100, 565, 2002). The peptide dimer was dissolved in dimethyl sulfoxide (DMSO) to obtain a 40 mg/ml peptide solution. The peptide solution (35 μl) was then added to 10 mM phosphate buffer (pH 7.5) (581 μl) to obtain a peptide suspension. The resultant peptide suspension (550 μl) and Montanide ISA51 (Seppic) (700 μl) were mixed using a connected glass syringe to prepare an emulsion as an administration solution.
# The administration solution (200 μl) was injected into an HLA-A24 transgenic mouse subcutaneously in the base of the tail. Three mice were used. Seven days after the injection, the spleen was removed and splenocytes were prepared. A portion of the splenocytes was pulsed with the peptide dimer (100 μg/ml) for 1 hour. Splenocytes not pulsed with the peptide were seeded into a 24-well plate at 7×10^6 cells/well and thereto were added the above-mentioned splenocytes pulsed with the peptide (1×10^6 cells/well), and the plate was incubated. The incubation was conducted in RPMI1640 medium supplemented with 10% FCS, 10 mM HEPES, 20 mM L-glutamine, 1 mM sodium pyruvate, 1 mM MEM nonessential amino acids, 1% MEM vitamin and 55 μM 2-mercaptoethanol for 5 days.
# The cultured splenocytes were examined for the cytotoxic activity specific for the peptide used in the administration by ^51Cr release assay (J. Immunol.: 159, 4753, 1997). EL4-A2402/K^b cells obtained by transforming EL-4 cells (ATCC No. TIB-39) in such a manner that a chimera MHC class I molecule of HLA-A24 and H2K^b (Int. J. Cancer: 100, 565, […]) are expressed stably were used as the target cells. The target cells were labeled with ^51Cr (3.7 MBq/10^6 cells) and pulsed with the peptide at 100 μg/ml for an hour. For control, target cells not pulsed with the peptide were labeled with ^51Cr for 2 hours. Those labeled target cells and the previously prepared splenocytes were mixed at a ratio of 1:120, cultured for 4 hours and the CTL activity was evaluated on the basis of the percent of damaged target cells.
substance,measurement,setting,value
"Example 1: Dimer of two H-Cys-Tyr-Thr-Trp-Asn-Gln-Met-Asn-Leu-OH (SEQ ID NO:44) monomers, made by air oxidation, bound through a disulfide bond (chain 1 H-CYTWNQMNL-OH; chain 2 H-CYTWNQMNL-OH; disulfide I:1-II:1; SMILES CSCC[C@H](NC(=O)[C@H](CCC(N)=O)NC(=O)[C@H](CC(N)=O)NC(=O)[C@H](Cc1c[nH]c2ccccc12)NC(=O)[C@@H](NC(=O)[C@H](Cc1ccc(O)cc1)NC(=O)[C@@H](N)CSSC[C@H](N)C(=O)N[C@@H](Cc1ccc(O)cc1)C(=O)N[C@H](C(=O)N[C@@H](Cc1c[nH]c2ccccc12)C(=O)N[C@@H](CC(N)=O)C(=O)N[C@@H](CCC(N)=O)C(=O)N[C@@H](CCSC)C(=O)N[C@@H](CC(N)=O)C(=O)N[C@@H](CC(C)C)C(=O)O)[C@@H](C)O)[C@@H](C)O)C(=O)N[C@@H](CC(N)=O)C(=O)N[C@@H](CC(C)C)C(=O)O)",CTL-inducing activity (induction of peptide-specific CTLs),,CTLs specific for the peptide were induced
same,CTL-inducing activity (induction of peptide-specific CTLs),listed as peptide dimer (SEQ ID NO: 44),induces CTLs
same,cytotoxic activity of splenocytes on target cells not pulsed with the peptide (control),"same splenocytes, target cells not pulsed with the peptide, ratio 1:120, 4 hours",only weak cytotoxicity
same,cytotoxic activity of splenocytes on target cells pulsed with the peptide (percent of damaged target cells),"splenocytes from mice injected s.c. with emulsion (Montanide ISA51), 7 days, target cells pulsed with peptide 100 μg/ml, target:splenocyte ratio 1:120, 4 hours",injured strongly
